Values quoted from earlier work, collected in US7282225B1, “Composition and methods for improving retinal health” (Occular Technologies, Inc., priority 2006, dated 2007).
Like-named read-outs stand apart in the source and are kept apart here. One block for each compound: values may come before it.

Key:
macular degeneration = conditions: dietary or supplement intake, case-control study
[1] = system: age-related macular degeneration (AMD); conditions: participants at high risk (intermediate AMD, or advanced AMD in one eye only), daily oral tablets
animals [2] = conditions: animal study, alpha-lipoic acid supplements
animals [3] = system: animals
AMD [4] = conditions: diet of 6 mg per day
AMD [5] = system: AMD
[6] = healthy, young men
people = conditions: more than 750 mg/day
asthma = conditions: 1-2 g/day
bladder cancer = conditions: 500 mg daily for 10 years or more
colon cancer [7] = conditions: 3 g/day
colon cancer [8] = conditions: intake of more than 157 mg/day
heart disease = conditions: more than 700 mg/day versus 60 mg/day or less
monocytes = conditions: 2 g/day
[9] = system: patients with atherosclerosis; conditions: 2 g/day
[10] = system: restenosis after angioplasty; conditions: 500 mg/day

Compound: Cc1c(C)c2c(c(C)c1O)CC[C@@](C)(CCC[C@H](C)CCC[C@H](C)CCCC(C)C)O2 [vitamin E, alpha-tocopherol]
association of intake with risk of macular degeneration (macular degeneration): negative effects

Compound: [O-2].[Zn+2] [zinc alone]
Reduced risk of developing advanced AMD [1]: about 21% | Reduced risk of vision loss [1]: about 11% | Reduced risk of developing advanced AMD ([1]; listed as Zinc Alone): AMD by about 21%. | Reduced risk of vision loss ([1]; listed as Zinc Alone): loss by about 11%.

Compound: O=C(O)CCCCC1CCSS1 (stereo not drawn) [alpha-lipoic acid, Alpha-Lipoic Acid]
side effects associated with amikacin and gentamicin (animals [2]): reduced side effects, particularly toxicity to the ear | toxic side effects associated with cisplatin and cyclophosphamide (animals [3]): protected against toxic side effects | cholesterol levels (rats): improved cholesterol levels | thyroid hormone function (rats): altered thyroid hormone function

Compound: CC1=C[C@H](O)CC(C)(C)[C@H]1/C=C/C(C)=C/C=C/C(C)=C/C=C/C=C(C)/C=C/C=C(C)/C=C/C1=C(C)C[C@@H](O)CC1(C)C [lutein, Lutein]
lower prevalence of AMD (AMD [4]): 43% | association of intake with risk of macular degeneration (macular degeneration): most strongly associated with a reduced risk

Compound: CC1=C(/C=C/C(C)=C/C=C/C(C)=C/CO)C(C)(C)CCC1 [retinol, Retinol]
association of intake with risk of macular degeneration (macular degeneration): no effect

Compound: [Zn] [zinc]
accumulation of drusen (AMD [5]; zinc group): less accumulation of drusen | treatment of AMD (AMD [5]; zinc supplements): effective

minimum intake required to completely saturate the blood plasma with vitamin C [6]: ≥ 1000 mg/day
Compound: O=C1O[C@H]([C@@H](O)CO)C(O)=C1O [vitamin C, ascorbic acid]
reduction of risk of dying prematurely (people): 60% | asthma symptoms (asthma): reduce asthma symptoms significantly | reduction of risk of developing bladder cancer (bladder cancer): 60% | polyp growth in colon cancer (colon cancer [7]): effectively prevent further polyp growth | reduction of risk of developing colon cancer (colon cancer [8]): 50% | lower risk of dying from heart disease (heart disease): 62% | adhesion of monocytes to the lining of blood vessels (monocytes): reduce adhesion of monocytes | vasomotor dysfunction [9]: effectively reverses | restenosis (reclosing of opened arteries) after angioplasty [10]: significantly reduced | open angle glaucoma (cataracts and glaucoma; large doses): can be reversed | risk of cataracts and glaucoma (cataracts and glaucoma; supplementation): significantly lower | association of intake with risk of macular degeneration (macular degeneration): little effect

Compound: CC1=C(/C=C/C(C)=C/C=C/C(C)=C/C=C/C=C(C)/C=C/C=C(C)/C=C/C2=C(C)C[C@@H](O)CC2(C)C)C(C)(C)C[C@H](O)C1 [zeaxanthin, Zeaxanthin]
association of intake with risk of macular degeneration (macular degeneration): most strongly associated with a reduced risk
